Source: ChEMBL document CHEMBL2074503, “Role of organic anion-transporting polypeptides, OATP-A, OATP-C and OATP-8, in the human placenta-maternal liver tandem excretory pathway for foetal bilirubin” (Biochem J, 2003)

What was measured:
[1] = molecular target: T1, Solute carrier organic anion transporter family member 1B3 (OATP1B3) (Homo sapiens, UniProt Q9NPD5); test: (§1) TP_TRANSPORTER: uptake in Xenopus laevis oocytes; type: functional, cell-based, Oocyte; settings: Xenopus laevis oocytes expressing OATP1B3 (SLCO1B3)
T1 sequence (Q9NPD5 whole entry): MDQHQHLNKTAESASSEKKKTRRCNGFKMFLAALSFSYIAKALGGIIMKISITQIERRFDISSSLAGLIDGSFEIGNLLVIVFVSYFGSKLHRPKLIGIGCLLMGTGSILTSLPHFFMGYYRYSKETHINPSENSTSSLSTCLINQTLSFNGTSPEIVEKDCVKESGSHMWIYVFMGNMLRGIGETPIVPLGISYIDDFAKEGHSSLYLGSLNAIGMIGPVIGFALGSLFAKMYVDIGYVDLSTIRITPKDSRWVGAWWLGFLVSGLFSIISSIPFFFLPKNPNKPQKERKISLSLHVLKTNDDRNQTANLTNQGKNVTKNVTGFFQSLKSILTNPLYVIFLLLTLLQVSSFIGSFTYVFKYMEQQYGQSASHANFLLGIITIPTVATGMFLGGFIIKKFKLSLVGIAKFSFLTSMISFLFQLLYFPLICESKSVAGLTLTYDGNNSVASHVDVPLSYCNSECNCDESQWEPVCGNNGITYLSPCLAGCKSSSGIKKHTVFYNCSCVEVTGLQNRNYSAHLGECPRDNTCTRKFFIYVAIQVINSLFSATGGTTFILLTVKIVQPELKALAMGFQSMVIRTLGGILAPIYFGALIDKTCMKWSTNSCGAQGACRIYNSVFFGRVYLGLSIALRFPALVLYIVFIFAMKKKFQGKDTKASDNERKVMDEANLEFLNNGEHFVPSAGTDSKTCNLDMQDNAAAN

[2] = molecular target: T2, Solute carrier organic anion transporter family member 1A2 (Homo sapiens, UniProt P46721); test: (§2) TP_TRANSPORTER: inhibition of E217betaG uptake (E217betaG: 10 uM) by Bilirubin at a concentration of 100 u M in Xenopus laevis oocytes; type: functional, cell-based; settings: oocyte, 100 µM
T2 sequence (P46721 whole entry): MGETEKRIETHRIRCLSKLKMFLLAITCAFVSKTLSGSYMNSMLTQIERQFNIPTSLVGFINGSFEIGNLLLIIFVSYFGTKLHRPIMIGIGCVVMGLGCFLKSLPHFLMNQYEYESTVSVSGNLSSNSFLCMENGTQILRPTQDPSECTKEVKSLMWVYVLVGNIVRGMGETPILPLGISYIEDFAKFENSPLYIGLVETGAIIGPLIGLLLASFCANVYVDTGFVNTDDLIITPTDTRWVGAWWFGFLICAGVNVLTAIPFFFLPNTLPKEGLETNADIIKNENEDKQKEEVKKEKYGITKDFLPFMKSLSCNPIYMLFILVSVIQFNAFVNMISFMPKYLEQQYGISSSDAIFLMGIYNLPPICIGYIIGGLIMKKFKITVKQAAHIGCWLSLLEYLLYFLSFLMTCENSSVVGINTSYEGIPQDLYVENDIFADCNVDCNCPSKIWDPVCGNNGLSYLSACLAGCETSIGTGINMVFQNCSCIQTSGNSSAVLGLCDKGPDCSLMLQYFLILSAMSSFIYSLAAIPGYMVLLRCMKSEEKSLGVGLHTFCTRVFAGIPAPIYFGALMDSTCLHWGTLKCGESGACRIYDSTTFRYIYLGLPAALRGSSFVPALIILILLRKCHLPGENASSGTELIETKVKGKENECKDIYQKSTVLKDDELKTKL

[3] = molecular target: T3, Solute carrier organic anion transporter family member 1B1 (Homo sapiens, UniProt Q9Y6L6); test: as §2; type: functional, cell-based; settings: oocyte, 100 µM
T3 sequence (Q9Y6L6 whole entry): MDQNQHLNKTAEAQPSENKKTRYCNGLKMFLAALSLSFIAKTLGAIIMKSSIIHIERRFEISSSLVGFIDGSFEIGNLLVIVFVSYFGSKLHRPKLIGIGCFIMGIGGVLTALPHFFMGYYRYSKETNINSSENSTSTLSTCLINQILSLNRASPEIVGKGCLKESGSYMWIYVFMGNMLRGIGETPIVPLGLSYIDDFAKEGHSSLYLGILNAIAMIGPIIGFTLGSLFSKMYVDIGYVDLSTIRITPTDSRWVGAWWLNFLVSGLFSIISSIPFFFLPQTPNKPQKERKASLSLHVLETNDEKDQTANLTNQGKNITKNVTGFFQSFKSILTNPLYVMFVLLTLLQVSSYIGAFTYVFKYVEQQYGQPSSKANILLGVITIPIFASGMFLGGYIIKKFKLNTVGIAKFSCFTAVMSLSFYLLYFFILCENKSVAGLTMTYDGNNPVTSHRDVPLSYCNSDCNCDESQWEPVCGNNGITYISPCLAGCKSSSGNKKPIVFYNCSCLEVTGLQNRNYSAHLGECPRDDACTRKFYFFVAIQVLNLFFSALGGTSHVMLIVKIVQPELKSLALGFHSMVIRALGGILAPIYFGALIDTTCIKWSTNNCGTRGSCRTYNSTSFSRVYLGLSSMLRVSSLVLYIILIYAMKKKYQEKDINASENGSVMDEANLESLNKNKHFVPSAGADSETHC

[4] = molecular target: T4, Solute carrier organic anion transporter family member 1B3 (Homo sapiens, UniProt Q9NPD5); test: as §2; type: functional, cell-based; settings: oocyte, 100 µM
T4 sequence (Q9NPD5 whole entry): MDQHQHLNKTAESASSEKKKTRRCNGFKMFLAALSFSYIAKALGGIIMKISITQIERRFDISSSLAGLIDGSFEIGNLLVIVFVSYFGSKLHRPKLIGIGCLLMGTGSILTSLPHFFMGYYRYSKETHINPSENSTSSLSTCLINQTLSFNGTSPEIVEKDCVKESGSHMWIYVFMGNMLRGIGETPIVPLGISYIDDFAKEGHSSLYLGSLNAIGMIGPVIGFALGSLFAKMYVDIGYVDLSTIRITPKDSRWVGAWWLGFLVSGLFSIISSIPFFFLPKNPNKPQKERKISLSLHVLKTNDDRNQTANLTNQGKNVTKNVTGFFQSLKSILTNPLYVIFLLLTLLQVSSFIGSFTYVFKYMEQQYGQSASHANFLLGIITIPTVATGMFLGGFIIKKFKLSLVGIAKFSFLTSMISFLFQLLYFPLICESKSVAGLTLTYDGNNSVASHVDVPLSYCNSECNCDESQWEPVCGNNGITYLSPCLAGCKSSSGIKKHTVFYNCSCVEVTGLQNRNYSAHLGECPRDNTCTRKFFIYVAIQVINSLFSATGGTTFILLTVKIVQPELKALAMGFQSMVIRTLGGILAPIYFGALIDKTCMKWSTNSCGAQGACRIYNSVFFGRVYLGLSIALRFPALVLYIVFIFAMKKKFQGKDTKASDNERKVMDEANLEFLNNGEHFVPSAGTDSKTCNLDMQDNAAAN

[5] = molecular target: T2, Solute carrier organic anion transporter family member 1A2; test: (§3) TP_TRANSPORTER: inhibition of UCB uptake (UCB: 10 uM) by Estradiol-17beta-D-glucuronide at a concentration of 100 u M in Xenopus laevis oocytes; type: functional, cell-based; settings: oocyte, 100 µM
[6] = molecular target: T3, Solute carrier organic anion transporter family member 1B1; test: as §3; type: functional, cell-based; settings: oocyte, 100 µM
[7] = molecular target: T4, Solute carrier organic anion transporter family member 1B3; test: as §3; type: functional, cell-based; settings: oocyte, 100 µM
[8] = substrate: C=CC1=C(C)/C(=C/c2[nH]c(Cc3[nH]c(/C=C4\NC(=O)C(C)=C4C=C)c(C)c3CCC(=O)O)c(CCC(=O)O)c2C)NC1=O; test: as §1; type: functional, cell-based, Oocyte

C=CC1=C(C)/C(=C/c2[nH]c(Cc3[nH]c(/C=C4\NC(=O)C(C)=C4C=C)c(C)c3CCC(=O)O)c(CCC(=O)O)c2C)NC1=O [BILIRUBIN]
Km [1]: 39.1 nM | Activity [2]: inhibitor [+] | Activity [3]: inhibitor [+] | Activity [4]: inhibitor [+]

C[C@]12CC[C@@H]3c4ccc(O)cc4CC[C@H]3[C@@H]1CC[C@@H]2O[C@@H]1O[C@H](C(=O)O)[C@@H](O)[C@H](O)[C@H]1O [ESTRADIOL 17B GLUCURONIDE]
Activity [5]: inhibitor [+] | Activity [6]: inhibitor [+] | Activity [7]: inhibitor [+]

B1: Solute carrier organic anion transporter family member 1B1 (Homo sapiens) (protein)
chain: MDQNQHLNKTAEAQPSENKKTRYCNGLKMFLAALSLSFIAKTLGAIIMKSSIIHIERRFEISSSLVGFIDGSFEIGNLLVIVFVSYFGSKLHRPKLIGIGCFIMGIGGVLTALPHFFMGYYRYSKETNINSSENSTSTLSTCLINQILSLNRASPEIVGKGCLKESGSYMWIYVFMGNMLRGIGETPIVPLGLSYIDDFAKEGHSSLYLGILNAIAMIGPIIGFTLGSLFSKMYVDIGYVDLSTIRITPTDSRWVGAWWLNFLVSGLFSIISSIPFFFLPQTPNKPQKERKASLSLHVLETNDEKDQTANLTNQGKNITKNVTGFFQSFKSILTNPLYVMFVLLTLLQVSSYIGAFTYVFKYVEQQYGQPSSKANILLGVITIPIFASGMFLGGYIIKKFKLNTVGIAKFSCFTAVMSLSFYLLYFFILCENKSVAGLTMTYDGNNPVTSHRDVPLSYCNSDCNCDESQWEPVCGNNGITYISPCLAGCKSSSGNKKPIVFYNCSCLEVTGLQNRNYSAHLGECPRDDACTRKFYFFVAIQVLNLFFSALGGTSHVMLIVKIVQPELKSLALGFHSMVIRALGGILAPIYFGALIDTTCIKWSTNNCGTRGSCRTYNSTSFSRVYLGLSSMLRVSSLVLYIILIYAMKKKYQEKDINASENGSVMDEANLESLNKNKHFVPSAGADSETHC
Km [8]: 7.6 nM
